From patent publication EP0139983A1, “Crystalline salts of L or (S)-3-(3,4-dihydroxyphenyl)-2-methylalanine esters and process” (Merck & Co., Inc., priority 1983, dated 1985) come the findings set out here.

Structures can show the parent of a compound that is named as a salt. Where two headings read alike, the source gives them in different places.

Data set [1] is described as follows: Solubility in aqueous media. Format: physicochemical. The conditions noted are these: salt solubility is system dependent (amount of salt present, relative amount of (R) and (S) salts).
Data set [2] in a line: Stability (aqueous environment, mechanical stress, heat and compression). Format: physicochemical. The conditions noted are these: subjected to an aqueous environment or to mechanical stress such as grinding.

For the compound `C[C@](N)(Cc1ccc(O)c(O)c1)C(=O)O` (single isomer, unassigned) [methyldopa, L or (S)-3-(3,4-dihydroxyphenyl)-2-methylalanine], the solubility in data set [1] (read-out: solubility) is 10000 µg/mL. Turning to `CC(OC(=O)C(C)(C)C)OC(=O)C(C)(N)Cc1ccc(O)c(O)c1` (stereo not shown) [solvated tartaric acid salt mixture], the solubility in data set [1] was in the range of 156 to 383 grams per liter. With `CC(OC(=O)C(C)(C)C)OC(=O)[C@@](C)(N)Cc1ccc(O)c(O)c1` (stereo partly drawn) [POE ester bases, (R,S)-l-pivaloyloxyethyl (S)-3-(3,4-dihydroxyphenyl)-2-methylalaninate], the stability result in data set [2] is reported as “tend to be unstable”. As to `CC(OC(=O)C(C)(C)C)OC(=O)C(C)(N)Cc1ccc(O)c(O)c1` (mixture of isomers) [solvated phosphate salt mixture of (R,S)-POE ester of methyl], the solubility in data set [1] fell in the range of 57 to 197 grams per liter.
